What was measured:
Assay in all cases: Test B pre-/postemergence plant response
Type in all cases: in vivo
[1] = tested on: Italian ryegrass (Lolium multiflorum); details: for Ryegrass, Italian plant response rating (0 to 100 scale): 62 g ai/ha, 0 is no effect
Outline: (§1)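 Steps: sow seed in loam–sand soil and spray preemergence, or grow plants in peat-based medium to 1–4 leaves (2–18 cm) and spray postemergence; formulation is non-phytotoxic solvent plus surfactant; hold in greenhouse 13–15 days; score visually vs controls, 0 = no effect, 100 = complete control.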

[2] = tested on: Surinam grass (Brachiaria decumbens); details: for Surinam Grass plant response rating (0 to 100 scale): 62 g ai/ha, 0 is no effect
Outline: as §1

[3] = tested on: bermudagrass (Cynodon dactylon); details: for Bermudagrass plant response rating (0 to 100 scale): 62 g ai/ha, 0 is no effect
Outline: as §1

[4] = tested on: blackgrass (Alopecurus myosuroides); details: for Blackgrass plant response rating (0 to 100 scale): 62 g ai/ha, 0 is no effect
Outline: as §1

[5] = tested on: cocklebur (Xanthium strumarium); details: for Cocklebur plant response rating (0 to 100 scale): 62 g ai/ha, 0 is no effect
Outline: as §1

[6] = tested on: downy bromegrass (Bromus tectorum); details: for Bromegrass, Downy plant response rating (0 to 100 scale): 62 g ai/ha, 0 is no effect
Outline: as §1

kochia (Kochia scoparia) = details: for Kochia plant response rating (0 to 100 scale): 62 g ai/ha, 0 is no effect
Outline: as §1

[7] = tested on: large crabgrass (Digitaria sanguinalis); details: for Crabgrass, Large plant response rating (0 to 100 scale): 62 g ai/ha, 0 is no effect
Outline: as §1

[8] = tested on: morningglory (Ipomoea coccinea); details: for Morningglory plant response rating (0 to 100 scale): 62 g ai/ha, 0 is no effect
Outline: as §1

[9] = tested on: ragweed (common ragweed, Ambrosia elatior); details: for Ragweed plant response rating (0 to 100 scale): 62 g ai/ha, 0 is no effect
Outline: as §1

[10] = tested on: wheat (Triticum aestivum); details: for Wheat plant response rating (0 to 100 scale): 62 g ai/ha, 0 is no effect
Outline: as §1

wild oat (Avena fatua) = details: for Oat, Wild plant response rating (0 to 100 scale): 62 g ai/ha, 0 is no effect
Outline: as §1

[11] = tested on: woolly cupgrass (Eriochloa villosa); details: for Cupgrass, Woolly plant response rating (0 to 100 scale): 62 g ai/ha, 0 is no effect
Outline: as §1

[12] = postemergence, 100 is complete control, 13 to 15 days
[13] = Postemergence, 125 g ai/ha, scale 0 to 100 (0 no effect, 100 complete control)
[14] = Postemergence, 250 g ai/ha, scale 0 to 100 (0 no effect, 100 complete control)
[15] = 31 g ai/ha, postemergence, scale 0 to 100, 0 is no effect, 100 is complete control
[16] = Postemergence, 125 g ai/ha, visual rating after 13 to 15 days, scale 0 (no effect) to 100 (complete control)
[17] = Postemergence, 31 g ai/ha, 0 to 100 scale (0 no effect, 100 complete control)
[18] = Postemergence, 250 g ai/ha, scale 0 to 100 (0 no effect, 100 complete control), 13 to 15 days

COCCCn1c(-c2cccc(C)c2)ncc(C(=O)C2=C(O)CCCC2=O)c1=O [Compound 118, 5-[(2-hydroxy-6-oxo-1-cyclohexane-1-yl)carbonyl]-3-(3-methoxypropyl)-2-(3-methylphenyl)-4(3H)-pyrimidinone]
Ryegrass, Italian plant response rating (0 to 100 scale) [1, 12]: 5
Plant response rating, Ryegrass, Italian [1, 13]: 5
Plant response rating, Ryegrass, Italian [1, 14]: 60
Plant response rating, Surinam Grass [2, 13]: 75
Plant response rating, Surinam Grass [2, 14]: 90
Plant response rating, Bermudagrass [3, 15]: 75
Bermudagrass plant response rating (0 to 100 scale) [3, 12]: 95
Plant response rating, Bermudagrass [3, 13]: 98
Plant response rating, Bermudagrass [3, 14]: 98
Plant response rating, Blackgrass [4, 15]: 5
Blackgrass plant response rating (0 to 100 scale) [4, 12]: 10
Plant response rating, Blackgrass [4, 13]: 35
Plant response rating, Blackgrass [4, 14]: 40
Plant response rating, Cocklebur [5, 15]: 40
Cocklebur plant response rating (0 to 100 scale) [5, 12]: 40
Plant response rating, Cocklebur [5, 13]: 85
Plant response rating, Cocklebur [5, 14]: 98
Plant response rating, Bromegrass, Downy [6, 15]: 0
Bromegrass, Downy plant response rating (0 to 100 scale) [6, 12]: 5
Plant response rating, Bromegrass, Downy [6, 13]: 30
Plant response rating, Bromegrass, Downy [6, 14]: 35
Plant response rating, Kochia (kochia (Kochia scoparia); [15]): 45
Kochia plant response rating (0 to 100 scale) (kochia (Kochia scoparia); [12]): 65
Plant response rating, Kochia (kochia (Kochia scoparia); [13]): 70
Plant response rating, Kochia (kochia (Kochia scoparia); [14]): 98
Plant response rating, Crabgrass, Large [7, 15]: 70
Crabgrass, Large plant response rating (0 to 100 scale) [7, 12]: 75
Plant response rating, Crabgrass, Large [7, 13]: 80
Plant response rating, Crabgrass, Large [7, 14]: 95
Plant response rating, Morningglory [8, 15]: 10
Morningglory plant response rating (0 to 100 scale) [8, 12]: 60
Plant response rating, Morningglory [8, 13]: 70
Plant response rating, Morningglory [8, 14]: 80
Ragweed plant response rating (0 to 100 scale) [9, 12]: 85
Plant response rating, Ragweed [9, 13]: 95
Plant response rating, Ragweed [9, 14]: 98
Wheat plant response rating (0 to 100 scale) [10, 12]: 5
Plant response rating, Wheat [10, 13]: 5
Plant response rating, Oat, Wild (wild oat (Avena fatua); [15]): 5
Oat, Wild plant response rating (0 to 100 scale) (wild oat (Avena fatua); [12]): 5
Plant response rating, Oat, Wild (wild oat (Avena fatua); [13]): 10
Plant response rating, Oat, Wild (wild oat (Avena fatua); [14]): 40
Plant response rating, Cupgrass, Woolly [11, 15]: 65
Cupgrass, Woolly plant response rating (0 to 100 scale) [11, 12]: 70
Plant response rating, Cupgrass, Woolly [11, 13]: 75
Plant response rating, Cupgrass, Woolly [11, 14]: 95

CCCCCn1c(-c2ccccc2)ncc(C(=O)C2=C(O)CCCC2=O)c1=O [Compound 89]
Plant response rating, Ryegrass, Italian [1, 15]: 0
Ryegrass, Italian plant response rating (0 to 100 scale) [1, 12]: 5
Plant response rating, Ryegrass, Italian [1, 14]: 30
Plant response rating, Surinam Grass [2, 15]: 55
Surinam Grass plant response rating (0 to 100 scale) [2, 12]: 75
Plant response rating, Surinam Grass [2, 14]: 95
Plant response rating, Bermudagrass [3, 15]: 75
Bermudagrass plant response rating (0 to 100 scale) [3, 12]: 85
Plant response rating, Bermudagrass [3, 16]: 95
Plant response rating, Bermudagrass [3, 14]: 95
Plant response rating, Blackgrass [4, 15]: 10
Blackgrass plant response rating (0 to 100 scale) [4, 12]: 15
Plant response rating, Blackgrass [4, 16]: 20
Plant response rating, Blackgrass [4, 14]: 30
Plant response rating, Cocklebur [5, 15]: 10
Cocklebur plant response rating (0 to 100 scale) [5, 12]: 60
Plant response rating, Cocklebur [5, 16]: 65
Plant response rating, Cocklebur [5, 14]: 70
Plant response rating, Bromegrass, Downy [6, 15]: 0
Bromegrass, Downy plant response rating (0 to 100 scale) [6, 12]: 0
Plant response rating, Bromegrass, Downy [6, 16]: 5
Plant response rating, Bromegrass, Downy [6, 14]: 5
Plant response rating, Kochia (kochia (Kochia scoparia); [15]): 65
Kochia plant response rating (0 to 100 scale) (kochia (Kochia scoparia); [12]): 75
Plant response rating, Kochia (kochia (Kochia scoparia); [14]): 100
Plant response rating, Crabgrass, Large [7, 15]: 85
Crabgrass, Large plant response rating (0 to 100 scale) [7, 12]: 95
Plant response rating, Crabgrass, Large [7, 16]: 95
Plant response rating, Crabgrass, Large [7, 14]: 98
Plant response rating, Morningglory [8, 15]: 70
Morningglory plant response rating (0 to 100 scale) [8, 12]: 85
Plant response rating, Morningglory [8, 14]: 100
Plant response rating, Ragweed [9, 15]: 70
Ragweed plant response rating (0 to 100 scale) [9, 12]: 85
Plant response rating, Ragweed [9, 14]: 100
Plant response rating, Wheat [10, 15]: 0
Wheat plant response rating (0 to 100 scale) [10, 12]: 5
Plant response rating, Wheat [10, 14]: 10
Plant response rating, Oat, Wild (wild oat (Avena fatua); [15]): 10
Oat, Wild plant response rating (0 to 100 scale) (wild oat (Avena fatua); [12]): 10
Plant response rating, Oat, Wild (wild oat (Avena fatua); [14]): 50
Plant response rating, Cupgrass, Woolly [11, 15]: 35
Cupgrass, Woolly plant response rating (0 to 100 scale) [11, 12]: 50
Plant response rating, Cupgrass, Woolly [11, 16]: 65
Plant response rating, Cupgrass, Woolly [11, 14]: 75

CCCn1c(-c2cc(F)cc(F)c2)ncc(C(=O)C2=C(O)CCCC2=O)c1=O [Compound 152]
Ryegrass, Italian plant response rating (0 to 100 scale) [1, 12]: 30
Plant response rating, Ryegrass, Italian [1, 17]: 5
Plant response rating, Ryegrass, Italian [1, 13]: 45
Plant response rating, Ryegrass, Italian [1, 18]: 80
Surinam Grass plant response rating (0 to 100 scale) [2, 12]: 85
Plant response rating, Surinam Grass [2, 17]: 75
Plant response rating, Surinam Grass [2, 13]: 90
Plant response rating, Surinam Grass [2, 18]: 95
Bermudagrass plant response rating (0 to 100 scale) [3, 12]: 95
Plant response rating, Bermudagrass [3, 17]: 95
Plant response rating, Bermudagrass [3, 13]: 98
Plant response rating, Bermudagrass [3, 18]: 98
Blackgrass plant response rating (0 to 100 scale) [4, 12]: 35
Plant response rating, Blackgrass [4, 17]: 20
Plant response rating, Blackgrass [4, 13]: 55
Plant response rating, Blackgrass [4, 18]: 70
Cocklebur plant response rating (0 to 100 scale) [5, 12]: 80
Plant response rating, Cocklebur [5, 17]: 70
Plant response rating, Cocklebur [5, 13]: 98
Plant response rating, Cocklebur [5, 18]: 100
Bromegrass, Downy plant response rating (0 to 100 scale) [6, 12]: 55
Plant response rating, Bromegrass, Downy [6, 17]: 30
Plant response rating, Bromegrass, Downy [6, 13]: 60
Plant response rating, Bromegrass, Downy [6, 18]: 85
Kochia plant response rating (0 to 100 scale) (kochia (Kochia scoparia); [12]): 65
Plant response rating, Kochia (kochia (Kochia scoparia); [17]): 10
Plant response rating, Kochia (kochia (Kochia scoparia); [13]): 95
Plant response rating, Kochia (kochia (Kochia scoparia); [18]): 100
Crabgrass, Large plant response rating (0 to 100 scale) [7, 12]: 85
Plant response rating, Crabgrass, Large [7, 17]: 75
Plant response rating, Crabgrass, Large [7, 13]: 95
Plant response rating, Crabgrass, Large [7, 18]: 95
Morningglory plant response rating (0 to 100 scale) [8, 12]: 75
Plant response rating, Morningglory [8, 17]: 45
Plant response rating, Morningglory [8, 13]: 75
Plant response rating, Morningglory [8, 18]: 95
Ragweed plant response rating (0 to 100 scale) [9, 12]: 80
Plant response rating, Ragweed [9, 17]: 60
Plant response rating, Ragweed [9, 13]: 95
Plant response rating, Ragweed [9, 18]: 98
Wheat plant response rating (0 to 100 scale) [10, 12]: 50
Plant response rating, Wheat [10, 17]: 35
Plant response rating, Wheat [10, 13]: 85
Plant response rating, Wheat [10, 18]: 90
Oat, Wild plant response rating (0 to 100 scale) (wild oat (Avena fatua); [12]): 45
Plant response rating, Oat, Wild (wild oat (Avena fatua); [17]): 30
Plant response rating, Oat, Wild (wild oat (Avena fatua); [13]): 80
Plant response rating, Oat, Wild (wild oat (Avena fatua); [18]): 85
Cupgrass, Woolly plant response rating (0 to 100 scale) [11, 12]: 98
Plant response rating, Cupgrass, Woolly [11, 17]: 95
Plant response rating, Cupgrass, Woolly [11, 13]: 98
Plant response rating, Cupgrass, Woolly [11, 18]: 100

Source: US8952024B2, “Herbicidal pyrimidone derivatives” (E I du Pont de Nemours and Company, priority 2009, dated 2015)
